Source: patent US20130109682A1, “CYCLIC ETHER COMPOUNDS USEFUL AS KINASE INHIBITORS” (NOVARTIS AG, priority 2010, published 2013)

What was measured:
FLT3D835Y kinase = biological target: T1, FLT3D835Y kinase (Homo sapiens, UniProt P36888, D835Y); assay: FLT3D835Y kinase inhibition assay (LanthaScreen TR-FRET); format: biochemical; conditions: read-out: FLT3 IC50
T1 sequence (P36888 27-993 D835Y): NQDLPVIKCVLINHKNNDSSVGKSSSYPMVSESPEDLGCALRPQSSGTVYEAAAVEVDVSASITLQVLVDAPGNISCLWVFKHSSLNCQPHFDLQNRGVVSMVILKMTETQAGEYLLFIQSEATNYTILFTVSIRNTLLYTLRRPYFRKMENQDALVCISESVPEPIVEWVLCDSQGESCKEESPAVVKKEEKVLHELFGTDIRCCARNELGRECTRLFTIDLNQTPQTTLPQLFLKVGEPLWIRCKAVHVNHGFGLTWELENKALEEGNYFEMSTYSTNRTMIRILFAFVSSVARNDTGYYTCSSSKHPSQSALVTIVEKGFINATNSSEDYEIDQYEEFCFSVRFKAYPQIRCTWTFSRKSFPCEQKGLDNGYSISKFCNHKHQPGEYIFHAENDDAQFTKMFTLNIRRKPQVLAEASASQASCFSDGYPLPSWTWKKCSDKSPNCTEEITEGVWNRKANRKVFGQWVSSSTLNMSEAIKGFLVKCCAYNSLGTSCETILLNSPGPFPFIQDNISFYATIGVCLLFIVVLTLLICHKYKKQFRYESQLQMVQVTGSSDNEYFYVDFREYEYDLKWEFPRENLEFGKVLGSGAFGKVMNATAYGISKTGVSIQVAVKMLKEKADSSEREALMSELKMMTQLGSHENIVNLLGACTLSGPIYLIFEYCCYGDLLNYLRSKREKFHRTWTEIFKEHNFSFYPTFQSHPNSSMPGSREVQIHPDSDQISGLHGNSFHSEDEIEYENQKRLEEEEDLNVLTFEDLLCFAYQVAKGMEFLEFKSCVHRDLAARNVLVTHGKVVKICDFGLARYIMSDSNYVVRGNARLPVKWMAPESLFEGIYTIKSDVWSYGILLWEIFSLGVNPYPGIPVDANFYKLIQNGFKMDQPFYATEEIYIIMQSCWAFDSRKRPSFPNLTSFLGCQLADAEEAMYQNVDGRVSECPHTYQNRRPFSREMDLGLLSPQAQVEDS
Experimental: FLT3D835Y Kinase Inhibition Assay
LanthaScreen™ is the detection of Time-Resolved Fluorescence Resonance Energy Transfer (TR-FRET) using lanthanide chelates to measure interactions between various binding partners. The application of TR-FRET to assay kinase activity was first described by Mathis (1995). A TR-FRET assay was used to measure FLT3D835Y kinase inhibitory activity. The assay panel was run on a Biomek FX liquid handling workstations. To the assay plates containing […] compound or control solutions, 4.5 μL of buffer A (50 mM TRIS-HCl pH 7.4, 2 mM DTT, 0.02% Tween 20, 0.02 mM Na3VO4, H2O nanpure) including a generic concentration of ATP (2 μM f.c.) was added per well, followed by […] of buffer B (4 uM ATP in Buffer A) including a generic concentration of polyEAY (50 nM f.c.), FLT3D835Y kinase, and divalent cations. Final concentration of kinase and cations were: [FLT3D835Y kinase]=5.7 nM, [Mg]=3 mM, [Mn]=3 mM. After 1 hour of incubation the kinase reactions were stopped by the addition of 4.5 μL of stop solution D (50 mM EDTA, 20 mM TRIS-HCl pH 7.4, 0.04% NP-40) immediately followed by 4.5 μL of buffer A (50 mM TRIS-HCl pH 7.4, 2 mM DTT, 0.02% Tween 20, 0.02 mM Na3VO4, H2O nanpure) including the Tb-labeled P-20 antibody to give a total detection volume of […]. After an incubation time of 45 min in the dark, the plates were transferred into the Pherastar fluorescence reader for counting. The effect of compound on the enzymatic activity was obtained from the linear progress curves and determined from one reading (end point measurement).

KDR kinase = KDR kinase (Homo sapiens, UniProt P35968); assay: KDR kinase inhibition assay (LanthaScreen TR-FRET); format: biochemical; conditions: TR-FRET assay
Experimental: KDR Kinase Inhibition Assay
LanthaScreen™ is the detection of Time-Resolved Fluorescence Resonance Energy Transfer (TR-FRET) using lanthanide chelates to measure interactions between various binding partners. The application of TR-FRET to assay kinase activity was first described by Mathis (1995). A TR-FRET assay was used to measure KDR kinase inhibitory activity. The assay panel was run on a Biomek FX liquid handling workstations. To the assay plates containing 50 nL compound or control solutions, 4.5 μL of buffer A (50 mM TRIS-HCl pH 7.4, 2 mM DTT, 0.02% Tween 20, 0.02 mM Na3VO4, H2O nanpure) including a generic concentration of ATP (2 μM f.c.) was added per well, followed by 4.5 μL of buffer B (4 uM ATP in Buffer A) including a generic concentration of polyEAY (50 nM f.c.), KDR kinase, and divalent cations. Final concentration of kinase and cations were: [KDR kinase]=0.38 nM, [Mg]=10 mM, [Ca]=1 mM. After 1 hour of incubation the kinase reactions were stopped by the addition of 4.5 μL of stop solution D (50 mM EDTA, 20 mM TRIS-HCl pH 7.4, 0.04% NP-40) immediately followed by 4.5 μL of buffer A (50 mM TRIS-HCl pH 7.4, 2 mM DTT, 0.02% Tween 20, 0.02 mM Na3VO4, H2O nanpure) including the Tb-labeled P-20 antibody to give a total detection volume of 18 μL. After an incubation time of 45 min in the dark, the plates were transferred into the Pherastar fluorescence reader for counting. The effect of compound on the enzymatic activity was obtained from the linear progress curves and determined from one reading (end point measurement).

Chain of KDR kinase (P35968 20-1356): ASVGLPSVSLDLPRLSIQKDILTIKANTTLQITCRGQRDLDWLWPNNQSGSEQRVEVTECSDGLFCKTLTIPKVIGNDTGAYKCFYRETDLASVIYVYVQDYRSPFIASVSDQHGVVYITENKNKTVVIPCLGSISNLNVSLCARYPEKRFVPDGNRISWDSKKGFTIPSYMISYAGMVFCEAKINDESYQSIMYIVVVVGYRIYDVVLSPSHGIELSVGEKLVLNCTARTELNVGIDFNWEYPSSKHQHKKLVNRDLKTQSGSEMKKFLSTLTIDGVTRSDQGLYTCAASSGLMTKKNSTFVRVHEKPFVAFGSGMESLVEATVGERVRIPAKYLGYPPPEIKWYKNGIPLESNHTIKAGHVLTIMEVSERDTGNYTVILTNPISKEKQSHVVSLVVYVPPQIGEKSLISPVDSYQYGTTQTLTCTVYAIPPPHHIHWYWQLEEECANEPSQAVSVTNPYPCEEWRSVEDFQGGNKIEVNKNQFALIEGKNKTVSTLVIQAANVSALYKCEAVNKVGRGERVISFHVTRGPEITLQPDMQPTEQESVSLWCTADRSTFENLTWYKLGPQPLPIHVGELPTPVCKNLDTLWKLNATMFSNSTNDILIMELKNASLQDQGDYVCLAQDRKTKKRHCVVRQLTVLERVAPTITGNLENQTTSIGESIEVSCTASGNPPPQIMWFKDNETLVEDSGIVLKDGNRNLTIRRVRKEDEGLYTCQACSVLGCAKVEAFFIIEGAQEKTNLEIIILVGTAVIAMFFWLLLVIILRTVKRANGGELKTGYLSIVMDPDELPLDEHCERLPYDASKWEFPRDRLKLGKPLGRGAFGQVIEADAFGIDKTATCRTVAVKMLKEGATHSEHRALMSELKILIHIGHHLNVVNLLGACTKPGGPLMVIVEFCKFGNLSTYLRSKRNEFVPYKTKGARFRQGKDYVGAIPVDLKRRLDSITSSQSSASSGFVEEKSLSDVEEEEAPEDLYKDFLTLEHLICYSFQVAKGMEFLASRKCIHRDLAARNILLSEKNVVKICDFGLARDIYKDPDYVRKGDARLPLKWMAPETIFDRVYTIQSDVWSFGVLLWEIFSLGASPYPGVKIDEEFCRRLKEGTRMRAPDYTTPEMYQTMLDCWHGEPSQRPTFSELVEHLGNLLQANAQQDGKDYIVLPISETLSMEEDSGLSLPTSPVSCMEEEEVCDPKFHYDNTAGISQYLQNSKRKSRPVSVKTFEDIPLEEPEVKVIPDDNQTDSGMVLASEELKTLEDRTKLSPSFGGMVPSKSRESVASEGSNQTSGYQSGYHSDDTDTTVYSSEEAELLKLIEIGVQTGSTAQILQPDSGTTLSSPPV

SMILES	IC50 (FLT3D835Y kinase) [nM]	IC50 (KDR kinase) [nM]
CC(C)[C@H]1C[C@@H](N)C[C@@H](c2ccncc2NC(=O)c2nc(-c3ccccc3)cnc2N)O1 [Example 292, 3-amino-N-(4-((2S,4R,6R)-4-amino-6-isopropyltetrahydro-2H-pyran-2-yl)pyridin-3-yl)-6-phenylpyrazine-2-carboxamide]	590	4300
CC(C)(C)[C@H]1O[C@@H](c2ccncc2NC(=O)c2nc(-c3ccccc3)cnc2N)C[C@@H](N)[C@@H]1O [Example 354, 3-amino-N-(4-((2R,4R,5S,6R)-4-amino-6-tert-butyl-5-hydroxytetrahydro-2H-pyran-2-yl)pyridin-3-yl)-6-phenylpyrazine-2-carboxamide]	3.1	62
CCC[C@H]1O[C@@H](c2ccncc2NC(=O)c2nc(-c3ccccc3)cnc2N)C[C@@H](O)[C@@H]1O [Example 340, 3-amino-N-(4-((2R,4R,5S,6R)-4,5-dihydroxy-6-propyltetrahydro-2H-pyran-2-yl)pyridin-3-yl)-6-phenylpyrazine-2-carboxamide]	110	130
C[C@]1(O)[C@H](N)C[C@H](c2ccncc2NC(=O)c2nc(-c3ccccc3)cnc2N)OC12CC2 [Example 353, 3-amino-N-(4-((5R,7R,8S)-7-amino-8-hydroxy-8-methyl-4-oxaspiro[2.5]octan-5-yl)pyridin-3-yl)-6-phenylpyrazine-2-carboxamide]	95	250
CC(C)[C@@H]1C[C@H](N)C[C@H](c2ccncc2NC(=O)c2nc(-c3ccccc3)cnc2N)O1 [Example 291, 3-amino-N-(4-((2R,4S,6S)-4-amino-6-isopropyltetrahydro-2H-pyran-2-yl)pyridin-3-yl)-6-phenylpyrazine-2-carboxamide]	5.3	340
CC(C)(C)[C@@H]1O[C@H](c2ccncc2NC(=O)c2nc(-c3ccccc3)cnc2N)C[C@@H](N)[C@H]1O [Example 227, 3-amino-N-(4-((2S,4R,5R,6S)-4-amino-6-tert-butyl-5-hydroxytetrahydro-2H-pyran-2-yl)pyridin-3-yl)-6-phenylpyrazine-2-carboxamide]	140	1700
Nc1ncc(-c2ccccc2)nc1C(=O)Nc1cnccc1[C@H]1C[C@@H](O)[C@H](O)[C@@H](CO)O1 [Example 341, 3-amino-N-(4-((2R,4R,5S,6R)-4,5-dihydroxy-6-(hydroxymethyl)tetrahydro-2H-pyran-2-yl)pyridin-3-yl)-6-phenylpyrazine-2-carboxamide]	120	60

More lines, now with the values ahead:

IC50 (FLT3D835Y kinase) [nM]	IC50 (KDR kinase) [nM]	SMILES
17	150	CC[C@H]1O[C@@H](c2ccncc2NC(=O)c2nc(-c3ccccc3)cnc2N)C[C@@H](N)[C@]1(C)O [Example 348, 3-amino-N-(4-((2R,4R,5S,6R)-4-amino-6-ethyl-5-hydroxy-5-methyltetrahydro-2H-pyran-2-yl)pyridin-3-yl)-6-phenylpyrazine-2-carboxamide]
4.4	6.8	Nc1ncc(-c2ccccc2)nc1C(=O)Nc1cnccc1[C@H]1C[C@@H](N)[C@@]2(O)CCC[C@H]2O1 [Example 183, 3-amino-N-(4-((2R,4R,4aS,7aR)-4-amino-4a-hydroxyoctahydrocyclopenta[b]pyran-2-yl)pyridin-3-yl)-6-phenylpyrazine-2-carboxamide]
170	1400	CC[C@]1(O)[C@H](C)O[C@H](c2ccncc2NC(=O)c2nc(-c3ccccc3)cnc2N)C[C@@H]1N [Example 189, 3-amino-N-(4-((2S,4S,5R,6S)-4-amino-5-ethyl-5-hydroxy-6-methyltetrahydro-2H-pyran-2-yl)pyridin-3-yl)-6-phenylpyrazine-2-carboxamide]
93	790	C[C@@H]1O[C@H](c2ccncc2NC(=O)c2nc(-c3ccccc3)cnc2N)C[C@H](N)[C@@]1(C)O [Example 229, 3-amino-N-(4-((2S,4S,5R,6S)-4-amino-5-hydroxy-5,6-dimethyltetrahydro-2H-pyran-2-yl)pyridin-3-yl)-6-phenylpyrazine-2-carboxamide]
